Measured values reported in patent publication US8883473B2, “Methods of treatment using allosteric processing inhibitors for matrix metalloproteinases” (Janssen Pharmaceutica N.V., priority 2011, dated 2014).

What was measured:
[1] = system: female Lewis rats with SCW-induced arthritis; assay: Efficacy in rats with SCW-induced arthritis (ankle thickness, clinical scores); format: in vivo, rat
Experimental: To induce arthritis, Female Lewis (LEW/N) rats, 5-6 weeks of age (80-100 g) were injected (i.p.) with SCW PG-PS as described above. Eighteen days later, arthritis was well established. Calipers were used to measure the width (anterior to posterior surface) of the left and right hind ankles of each rat. Each ankle was measured 3 times and averaged, and treatment groups were randomized based on ankle thickness (Table 6). Commencing on day 18, randomized groups of arthritic rats (n=5 rats/group) received vehicle or 5, 20, or 50 mg/kg Example 2 BID by oral gavage. Vehicle consisted of an aqueous mixture containing 2% (v:v) N-methylpyrrolidone, 5% (v:v) glycerine, and 20% (w:v) captisol. Treatment continued daily through the morning of day 26.
By day 18 mean ankle thickness was increased an average of >4.4 mm compared to disease free rats. Rats treated with vehicle alone continued to gradually develop a more severe arthritis based on ankle thickness measurements over the eight-day treatment period (Table 6). […] By day 26, the disease associated increase in ankle thickness had been reduced 27, 37, and 46 percent by 5, 20, and 50 mg/kg Example 2, respectively.
Hind paw inflammation clinical scores were assigned based on swelling and erythema.

[2] = target: T1, MMP9 (Rattus norvegicus, UniProt P50282); assay: Pro and active MMP9 in ankles of rats with SCW-induced arthritis by Western blot; format: in vivo; settings: day 26, four hours after the AM dose, mAb-L51/82
T1 construct: Pro and active MMP9 were abundantly present in ankles of SCW-induced vehicle-treated rats; from tissue; host or cells: tibia-tarsus joints (ankles) of female Lewis rats
T1 sequence (P50282 108-708): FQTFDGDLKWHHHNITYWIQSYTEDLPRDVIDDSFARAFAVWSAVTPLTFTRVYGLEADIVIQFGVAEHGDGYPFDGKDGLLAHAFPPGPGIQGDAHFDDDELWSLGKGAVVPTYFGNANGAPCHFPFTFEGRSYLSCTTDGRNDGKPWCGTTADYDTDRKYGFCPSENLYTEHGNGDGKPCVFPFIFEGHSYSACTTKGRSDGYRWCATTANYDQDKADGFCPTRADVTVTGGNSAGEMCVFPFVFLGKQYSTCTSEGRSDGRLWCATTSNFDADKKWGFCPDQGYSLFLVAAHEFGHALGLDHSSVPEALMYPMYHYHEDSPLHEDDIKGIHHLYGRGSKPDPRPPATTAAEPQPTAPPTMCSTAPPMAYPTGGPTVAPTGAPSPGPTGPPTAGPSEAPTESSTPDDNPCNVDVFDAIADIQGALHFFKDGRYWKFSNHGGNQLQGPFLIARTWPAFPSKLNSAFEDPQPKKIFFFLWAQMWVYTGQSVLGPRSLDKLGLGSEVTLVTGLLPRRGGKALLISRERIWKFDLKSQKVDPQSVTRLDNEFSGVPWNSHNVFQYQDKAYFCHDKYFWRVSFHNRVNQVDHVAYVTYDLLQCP
Experimental: Hind-limbs were skinned, severed just above the tibia-tarsus joint and below the metatarsals, and the tibia-tarsus joints (ankles) were weighed, snap frozen and pulverized on dry ice using a hammer and anvil. The pulverized tissue was suspended in 3 volumes (w:v) of ice-cold homogenization buffer containing 50 mM Tris pH 7.5, 150 mM NaCl, 5 mM EDTA, 1% Triton X100, 0.05% Brij 30, 10% dimethylsulfoxide and Complete EDTA-free Protease Inhibitor Cocktail (Roche Diagnostics). The suspended tissue was homogenized sequentially with a Kinematica AG Polytron and a Dounce homogenizer. Homogenates were centrifuged at 16,000×g for 10 min at 4° C. and the soluble fractions were saved. Dimethylsulfoxide was removed from a portion of each soluble fraction using PD MiniTrap™ G-25 desalting columns (GE Healthcare). Homogenates (0.25 mL), free of DMSO, were diluted with an equal volume of binding buffer (i.e., homogenization buffer without dimethylsufoxide) and adjusted to contain 50 μL of a 50% slurry of gelatin-conjugated sepharose. Following 2 hours of rotation at 4° C. the beads were washed twice in binding buffer and eluted in 100 μL 2×-reducing Laemmli buffer with heating to 95° C. for 5 minutes. […]

In the case of `Cc1nc(C)c(-c2csc(Nc3cc(S(N)(=O)=O)ccc3OC(C)C)n2)s1` [Example 2, 3-(2′,4′-Dimethyl-[4,5′]bithiazolyl-2-ylamino)-4-isopropoxy-benzenesulfonamide.HBr], the “ankle thickness measurements” value ([1]; 5, 20, 50 mg/kg BID oral gavage Day 18-26) is reported as “dose-dependent decrease”, the “clinical score measurements” value ([1]; 5, 20, 50 mg/kg BID, significant effects emerging at the 20 mg/kg dose) is reported as “dose dependent decrease” and the “abundance of proMMP9 in ankles” value [2] is reported as “did not reduce”.
